From patent EP4603105A1, “PHARMACEUTICAL COMPOSITION CONTAINING CYCLIC COMPOUND HAVING SELECTIVE KRAS INHIBITORY EFFECT AGAINST HRAS AND NRAS” (CHUGAI SEIYAKU KABUSHIKI KAISHA, priority 2022, dated 2024)
*1 amine or outer side, *2 acyl side, *3 side chain or, on linkers, in order; H or OH if unused. Where a SMILES comes first, the peptide text is derived from it. Bridges are numbered along the chain shown (N, C = ends). [ ]: non-standard residue; d: D form. The star is where a group is joined. hPhe(3-Cl-4-CF3) = N[C@@H](CCc1ccc(C(F)(F)F)c(Cl)c1)C(=O)O; X22 = C=CCCN([C@@H](Cc1ccc(C(F)(F)F)cc1)C(=O)[*:2])[*:1]; NPrPhe(4-CF3) = CCCN[C@@H](Cc1ccc(C(F)(F)F)cc1)C(=O)O; NMeGly(cPent) = CN[C@H](C(=O)O)C1CCCC1; NMeD = CN[C@@H](CC(=O)O)C(=O)O; NMeL = CN[C@@H](CC(C)C)C(=O)O; X20 = O=C(CN(CCF)[*:1])[*:2]; Morpholide = C1CN(*)CCO1; NMeA = CN[C@@H](C)C(=O)O; Ac5c = NC1(C(=O)O)CCCC1; Aze = O=C(O)[C@@H]1CCN1; Sar = CNCC(=O)O

What was measured:
[1] = target: GDP-bound NRAS wild-type protein (Homo sapiens, UniProt P01111); assay: Binding to NRAS by surface plasmon resonance (SPR), KD and KD ratio to KRAS
Sequence of GDP-bound NRAS wild-type protein (P01111 whole entry): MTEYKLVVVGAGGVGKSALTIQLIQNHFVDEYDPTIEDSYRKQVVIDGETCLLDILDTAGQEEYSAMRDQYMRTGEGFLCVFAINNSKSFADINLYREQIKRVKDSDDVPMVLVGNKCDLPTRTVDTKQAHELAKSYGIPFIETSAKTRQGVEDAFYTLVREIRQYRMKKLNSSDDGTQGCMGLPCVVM
Outline: (§1)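 Biotinylated GDP-bound RAS was captured at about 100–300 RU. Running buffer: HBS pH 7.4, 10 mM MgCl2, 10 µM GDP, 1 mM DTT, 0.01% Tween 20, 4% DMSO.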

HRAS wild-type protein = HRAS wild-type protein (Homo sapiens, UniProt P01112); assay: Binding to HRAS by surface plasmon resonance (SPR), KD and KD ratio to KRAS
Sequence of HRAS wild-type protein (P01112 whole entry): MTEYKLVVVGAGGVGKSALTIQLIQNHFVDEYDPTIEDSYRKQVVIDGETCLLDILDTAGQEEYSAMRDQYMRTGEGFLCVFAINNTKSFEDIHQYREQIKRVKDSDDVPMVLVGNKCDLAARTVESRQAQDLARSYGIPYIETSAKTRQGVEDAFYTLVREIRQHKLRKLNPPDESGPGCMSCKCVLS
Outline: as §1

[2] = tested on: human lung cancer strain NCI-H441; type: cell-based
Outline: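 Step one: dispense the test compound in serial DMSO dilutions. Step three: add the reagent and measure […].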

[3] = ratio of the KD value with respect to GDP-bound NRAS wild-type protein to the KD value with respect to KRAS
[4] = ratio of the KD value with respect to HRAS wild-type protein to the KD value with respect to KRAS
[5] = ratio of KD for GDP-bound NRAS wild-type protein to KD for KRAS
[6] = ratio of KD for HRAS wild-type protein to KD for KRAS

Row | IC50 [2] [nM] | SMILES | NRAS /KRAS [1, 3] | HRAS /KRAS (HRAS wild-type protein; [4]) | NRAS /KRAS ([1]; ratio of KD value for GDP-bound NRAS wild-type protein to KD value for KRAS (SPR)) | HRAS /KRAS (HRAS wild-type protein; ratio of KD value for HRAS wild-type protein to KD value for KRAS (SPR)) | NRAS /KRAS [1, 5] | HRAS /KRAS (HRAS wild-type protein; [6])
1 | 23.1 | CC[C@H](C)[C@@H]1NC(=O)[C@H](CC(C)C)N(C)C(=O)C[C@@H](C(=O)N2CCOCC2)N(C)C(=O)[C@H](C2CCCC2)N(C)C(=O)C2(CC2)NC(=O)[C@@H]2CCCN2C(=O)[C@H](CCc2cc(F)c(C(F)(F)F)c(F)c2)NC(=O)CN(C)C(=O)[C@H](Cc2ccc(C(F)(F)F)cc2)N2CCCC[C@@H](C2=O)N(C)C(=O)CN(C)C1=O [PP0559] | B (a compound having 3 or more and less than 10 is denoted as B) | B (a compound having 3 or more and less than 10 is denoted as B) | – | – | – | –
2 | 21 | CC[C@H](C)[C@@H]1NC(=O)[C@H](CC(C)C)N(C)C(=O)C[C@@H](C(=O)N2CCOCC2)N(C)C(=O)[C@H](C2CCCC2)N(C)C(=O)C2(CCCC2)NC(=O)[C@@H]2C[C@H](O)CN2C(=O)[C@H](CCc2cc(F)c(C(F)(F)F)c(F)c2)NC(=O)CN(C)C(=O)[C@H](Cc2ccc(C(F)(F)F)cc2)N2CCCC[C@@H](C2=O)N(C)C(=O)CN(C)C1=O [PP0556] | C (A compound having a KD ratio of 0.1 or more and less than 3 is denoted as C) | B (a compound having 3 or more and less than 10 is denoted as B) | – | – | – | –
3 | 25.5 | CCCN1C(=O)CN(C)C(=O)CN(CCF)C(=O)[C@H]([C@@H](C)CC)NC(=O)[C@H](CC(C)C)N(C)C(=O)C[C@@H](C(=O)N2CCOCC2)N(C)C(=O)[C@H](C2CCCC2)N(C)C(=O)C2(CCCC2)NC(=O)[C@@H]2CCCN2C(=O)[C@H](CCc2ccc(C(F)(F)F)c(Cl)c2)NC(=O)CN(C)C(=O)[C@@H]1Cc1ccc(C(F)(F)F)cc1 [PP0751] ([NMeL]I[X20][Sar][NPrPhe(4-CF3)][Sar][hPhe(3-Cl-4-CF3)]P[Ac5c][NMeGly(cPent)][NMeD]-Morpholide; lactam N-11) | B (a compound having 3 or more and less than 10 is denoted as B) | C (A compound having a KD ratio of 0.1 or more and less than 3 is denoted as C) | – | – | – | –
4 | 567 | CCO[C@@H]1C[C@H]2C(=O)NC3(CCC3)C(=O)N(C)[C@@H](C(CC)CC)C(=O)N(C)[C@H](C)CC(=O)N(C)[C@@H](CC3CCCC3)C(=O)N[C@@H]([C@@H](C)CC)C(=O)N(C)CC(=O)N(C)[C@H]3C/C=C\CCN(C3=O)[C@@H](Cc3ccc(F)cc3C)C(=O)N(C)CC(=O)N[C@@H](CCc3cc(F)c(C(F)(F)F)c(F)c3)C(=O)N2C1 [PP1522] | – | – | A (a compound having 10 or more and less than 20 is denoted as A) | A (a compound having 10 or more and less than 20 is denoted as A) | – | –
5 | 3.7 | CCO[C@@H]1C[C@H]2C(=O)NC3(CC(F)(F)C3)C(=O)N(C)[C@@H](C3CCCC3)C(=O)N(C)[C@H](C(=O)N3CCOCC3)CC(=O)N(C)[C@@H](CC(C)C)C(=O)N[C@@H]([C@@H](C)CC)C(=O)N(C)CC(=O)N(C)[C@H]3C[C@H]4C[C@H]4CN(C3=O)[C@@H](Cc3ccc(C(F)(F)F)cc3)C(=O)N(C)CC(=O)N[C@@H](CCc3cc(F)c(C(F)(F)F)c(F)c3)C(=O)N2C1 [PP0831] | – | – | – | – | C (A compound having a KD ratio of 0.1 or more and less than 3 is denoted as C) | C (A compound having a KD ratio of 0.1 or more and less than 3 is denoted as C)
6 | 21.7 | CCO[C@@H]1C[C@H]2C(=O)NC3(CCC3)C(=O)N(C)[C@@H](C3CCCC3)C(=O)N(C)[C@H](C(=O)N3CCOCC3)CC(=O)N(C)[C@@H](CC(F)F)C(=O)N[C@@H]([C@@H](C)CC)C(=O)N(C)CC(=O)N(C)[C@H]3CCCCCN(C3=O)[C@@H](Cc3ccc(C(F)(F)F)cc3)C(=O)N(C)CC(=O)N[C@@H](CCc3cc(F)c(C(F)(F)F)c(F)c3)C(=O)N2C1 [PP0854] | – | – | – | – | B (a compound having 3 or more and less than 10 is denoted as B) | B (a compound having 3 or more and less than 10 is denoted as B)
7 | 4.1 | CCO[C@@H]1C[C@H]2C(=O)NC3(CC(C)(C)C3)C(=O)N(C)[C@@H](C3CCCC3)C(=O)N(C)[C@H](C(=O)N(C)C)CC(=O)N(C)[C@H]3CCCCCc4ccc(cc4)C[C@@H](C(=O)N(C)CC(=O)N[C@@H](CCc4ccc(Cl)c(Cl)c4)C(=O)N2C1)N1CC/C=C\C[C@@H](C1=O)N(C)C(=O)CN(C)C(=O)[C@H]([C@@H](C)CC)NC3=O [PP3076] | – | – | – | – | AA (a compound having 20 or more is denoted as AA) | A (a compound having 10 or more and less than 20 is denoted as A)
8 | 7.5 | CCC[C@H]1C(=O)N[C@@H](C2CCCC2)C(=O)N(C)CC(=O)N(C)[C@H]2C/C=C\CCN(C2=O)[C@@H](Cc2ccc(C)cc2)C(=O)N(C)CC(=O)N[C@@H](CCc2ccc(C(F)(F)F)c(OC)c2)C(=O)N2C[C@H](OCC)C[C@H]2C(=O)NC2(CC(C)(C)C2)C(=O)N(C)[C@@H](C2CCCC2)C(=O)N(C)[C@H](C(=O)N(C)C)CC(=O)N1C [PP2992] | – | – | – | – | AA (a compound having 20 or more is denoted as AA) | A (a compound having 10 or more and less than 20 is denoted as A)
9 | 117 | CCO[C@@H]1C[C@H]2C(=O)NC3(CCC3)C(=O)N(C)[C@@H](C3CCCC3)C(=O)N(C)[C@H](C(=O)N(C)C)CC(=O)N(C)[C@@H](CC(C)C)C(=O)N[C@@H]([C@@H](C)CC)C(=O)N3CC[C@H]3C(=O)N(C)[C@H]3CC(C)=C(C)CN(C3=O)[C@@H](Cc3ccc(C(F)(F)F)cc3)C(=O)N(C)CC(=O)N[C@@H](CCc3cc(F)c(C(F)(F)F)c(F)c3)C(=O)N2C1 [PP1047] | – | – | – | – | C (A compound having a KD ratio of 0.1 or more and less than 3 is denoted as C) | C (A compound having a KD ratio of 0.1 or more and less than 3 is denoted as C)
10 | 2 | C=CCCN1C(=O)[C@@H]2CCN2C(=O)[C@H](C)N(C)C(=O)[C@H]([C@@H](C)CC)NC(=O)[C@H](CC(C)C)N(C)C(=O)C[C@@H](C(=O)N2CCOCC2)N(C)C(=O)[C@H](C2CCCC2)N(C)C(=O)C2(CCCC2)NC(=O)[C@@H]2CCCN2C(=O)[C@H](CCc2ccc(C(F)(F)F)c(Cl)c2)NC(=O)CN(C)C(=O)[C@@H]1Cc1ccc(C(F)(F)F)cc1 [PP0115] ([NMeL]I[NMeA][Aze][X22][Sar][hPhe(3-Cl-4-CF3)]P[Ac5c][NMeGly(cPent)][NMeD]-Morpholide; lactam N-11) | – | – | – | – | C (A compound having a KD ratio of 0.1 or more and less than 3 is denoted as C) | C (A compound having a KD ratio of 0.1 or more and less than 3 is denoted as C)

Row | SMILES | IC50 [2] [nM] | NRAS /KRAS [1, 3] | HRAS /KRAS (HRAS wild-type protein; [4]) | NRAS /KRAS ([1]; ratio of KD value for GDP-bound NRAS wild-type protein to KD value for KRAS (SPR)) | HRAS /KRAS (HRAS wild-type protein; ratio of KD value for HRAS wild-type protein to KD value for KRAS (SPR)) | NRAS /KRAS [1, 5] | HRAS /KRAS (HRAS wild-type protein; [6])
11 | CCO[C@@H]1C[C@H]2C(=O)NC3(CCC3)C(=O)N(C)[C@@H](C(CC)CC)C(=O)N(C)[C@H](C(=O)N3CCCCC3)CC(=O)N(C)[C@H]3CCC/C=C/c4ccc(cc4)C[C@@H](C(=O)N(C)CC(=O)N[C@@H](CCc4cc(F)c(C(F)(F)F)c(F)c4)C(=O)N2C1)N1CC/C=C\C[C@@H](C1=O)N(C)C(=O)CN(C1CC1)C(=O)[C@H]([C@@H](C)CC)NC3=O [PP2956] | 27.8 | – | – | – | – | AA (a compound having 20 or more is denoted as AA) | A (a compound having 10 or more and less than 20 is denoted as A)
